Assay results published in patent US20110092600A1, “PHARMACEUTICAL COMPOSITIONS COMPRISING AMINOCYCLOHEXANE DERIVATIVES” (MERZ PHARMA GMBH & KGAA, priority 2008, published 2011).

Columns and labels:
[1] = Isothermal titration calorimetry (ITC) of complexation with HPBCD; type: physicochemical
Protocol: (§1) Complexes between neramexane mesylate and either hydroxypropyl-beta-cyclodextrin (HPBCD; grade: Kleptose™ HPB) or hydroxypropyl-gamma-cyclodextrin (HPGCD; grade: Cavasol™ W8 HP Pharma) are formed and investigated by isothermal titration calorimetry (ITC). The experiments are performed on a Microcal MCS-ITC instrument. The procedure consists of iteratively adding small portions of a test solution (here: a neramexane mesylate solution) through a motorised microlitre syringe to a receptor solution (here: a cyclodextrin solution) located in the calorimeter. Upon complexation, an exothermic or endothermic signal is produced which represents the sum of all thermal events including complexation itself, but also heats of dilution or (de)protonation. The titration curves are evaluated with the Microcal Origin software V2.9 with its original data evaluation module for titration calorimetric evaluations.
(§2) The experiments are carried out using aqueous phosphate buffer of pH 6 as a solvent. Solutions of neramexane mesylate, HPBCD, and HPGCD of various concentrations are prepared, and a number of titrations are conducted using different maximal molar ratios of neramexane to cyclodextrin (after complete addition of the drug substance), ranging from 1.25 to 5. Titrations with solvent solutions alone and in combination with cyclodextrin solution are performed to obtain curves indicating the heats of dilution, which may be used as baseline data for the correction of the complexation curves.

[2] = Isothermal titration calorimetry (ITC) of complexation with HPGCD; type: physicochemical
Protocol: as §1, §2

[3] = final molar ratio 1.25, aqueous phosphate buffer pH 6
[4] = final molar ratio of neramexane to cyclodextrin 5, aqueous phosphate buffer pH 6
[5] = final molar ratio 1.8, aqueous phosphate buffer pH 6

## CC1(C)CC(C)(C)CC(C)(N)C1 [neramexane, 1-amino-1,3,3,5,5-pentamethylcyclohexane]
[1]; aqueous phosphate buffer pH 6
  thermal nature of complexation: exothermic
[1]; [3]
  equilibrium constant: 413 M⁻¹
  stoichiometry of binding (of neramexane per cyclodextrin molecule): 0.4
[1]; [4]
  equilibrium constant: 788 M⁻¹
  stoichiometry of binding (of neramexane per cyclodextrin molecule): 0.84
[2]; aqueous phosphate buffer pH 6
  thermal nature of complexation: endothermic
[2]; [5]
  equilibrium constant: 112 M⁻¹
  stoichiometry of binding: 0.93
